Laboratory results reported in patent publication EP4289427A1, “DIHYDRO[1,8]NAPHTHYRIDIN-7-ONE AND PYRIDO[3,2-B][1,4]OXAZIN-3-ONE FOR USE IN TREATING CANCER, AND METASTASES IN PARTICULAR” (Anagenesis Biotechnologies, priority 2022, dated 2023).

Columns and labels:
PSN1 = experiment: Cytotoxicity assay on KRAS mutated PSN1 cells; format: cell-based, Human; conditions: incubation 2 days
Protocol: (§1) Cytotoxicity assays consist in treating cells with compounds and assessing remaining viability after a defined incubation time, depending on the cell line. CellTiter-Glo® 2.0 reagent allows viability measurement by quantification of ATP present, which is an indicator of metabolically active cells.
(§2) The cancer cell lines were cultivated in their respective growth medium (see tables 6a and 6b). On day 0 of the cytotoxicity assay, the cells were harvested and seeded into a 384-well plate at a defined density in their respective growth medium (see tables 6a and 6b). Compounds to be tested were then added onto the cells and incubated for a defined duration (see tables 6a and 6b). Following incubation, CellTiter-Glo® 2.0 reagent (cat.no. G9241 from Promega) was added into the wells (vol/vol, according to the manufacturer's recommendations), plates were gently shaken and incubated for 10 minutes in the dark at room temperature. Bioluminescence was then measured with a multimode plate reader (Victor Nivo from Perkin Elmer), and cell viability and relative IC50 were determined. Table 6a: Cancer cell characteristics, culture and cytotoxic assay conditions

SW480 = experiment: Cytotoxicity assay on KRAS mutated SW480 cells; format: cell-based, Human; conditions: incubation 2 days
Protocol: as §1, §2

EoL-1 cells = experiment: Cytotoxicity assay (CellTiter-Glo 2.0) on EoL-1 cells; format: cell-based, Human; conditions: incubation 1 day; for IC50: Homo sapiens, EOL1, 24 h
Procedure, shortened: (§3)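 Each line is plated at a defined density in its growth medium and treated with test compounds for a duration set per cell line. Remaining viability is then measured by CellTiter-Glo 2.0 ATP luminescence and expressed as relative IC50.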

HEC-1A = experiment: Cytotoxicity assay on KRAS mutated HEC-1A cells; format: cell-based, Human; conditions: incubation 2 days
Protocol: as §1, §2

MDA-MB-231 cells [1] = experiment: Cytotoxicity assay (CellTiter-Glo 2.0) on MDA-MB-231 cells; format: cell-based, Human; conditions: incubation 3 days; for IC50: Homo sapiens, 72 h
Procedure, shortened: as §3

4T1 cells [2] = experiment: Cytotoxicity assay (CellTiter-Glo 2.0) on 4T1 cells; format: cell-based, Mouse; conditions: incubation 2 days; for IC50: Mus musculus, 48 h
Procedure, shortened: as §3

HCT116 = experiment: Cytotoxicity assay on KRAS mutated HCT116 cells; format: cell-based, Human; conditions: incubation 2 days
Protocol: as §1, §2

Mia PaCa-2 = experiment: Cytotoxicity assay on KRAS mutated Mia PaCa-2 cells; format: cell-based, Human; conditions: Mia PaCa-2, KRAS mutated, incubation 2 days
Protocol: as §1, §2

RD cells [3] = experiment: Cytotoxicity assay (CellTiter-Glo 2.0) on RD cells; format: cell-based, Human; conditions: for IC50: Homo sapiens
Procedure, shortened: as §3

4T1 cells [4] = experiment: Epithelial-mesenchymal transition marker expression by qRT-PCR; format: cell-based, Mouse; set-up: key: ↗: increased expression; ↘: decreased expression; =: unchanged expression levels; conditions: 24 hours, expression normalized against RPL13
Source text: The epithelial-mesenchymal transition (hereafter "EMT") is a process by which epithelial cells lose their cell polarity and cell-cell adhesion while gaining migratory and invasive properties to become mesenchymal stem cells. EMT is commonly measured by quantifying both epithelial and mesenchymal marker's expression by quantitative reverse-transcription polymerase chain reaction (hereafter "qRT-PCR"). EMT inhibition is observed when epithelial markers are stable or increased while mesenchymal markers are decreased.
4T1 cells were treated with compounds to be tested or DMSO for 24 hours. 4T1 cells were then harvested directly in NucleoZol lysis buffer (cat. no. 740404.200 from Macherey-Nagel), according to the manufacturer's instructions. Total RNA was extracted using the NucleoSpin RNA set for NucleoZol (cat. no. 740406.50 from Macherey-Nagel). The quantity and purity of RNA was determined using a Quickdrop (Molecular Devices). RT-PCR was performed on 500 ng total RNA using iScript gDNA clear cDNA synthesis Kit (cat.no. 1725035 from Biorad). The qPCR was run on a QuantStudio 5 real time thermocycler (Applied Biosystems), with PowerUp SYBR Green Master Mix (cat.no. A25742 from Fisher Scientific) and the primers listed in Table 16.
Expression data of EMT markers have been normalized against expression data of the housekeeping gene RPL13.

A549 = experiment: Cytotoxicity assay on KRAS mutated A549 cells; format: cell-based, Human; conditions: incubation 2 days
Protocol: as §1, §2

HUVECs = experiment: Tube formation assay (anti-angiogenic activity); format: cell-based, human; conditions: incubation 16 to 18 hours; for IC50: Homo sapiens, HUVEC
Procedure, shortened: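 HUVECs plated at 5000 cells/well on reduced growth factor basement membrane matrix, then exposed to compounds for 16 to 18 hours at 37°C. Cells stained with calcein-AM; tube networks imaged by confocal fluorescence microscopy and quantified.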

RPMI 8226 = experiment: Cytotoxicity assay on KRAS mutated RPMI 8226 cells; format: cell-based, Human; conditions: RPMI 8226, KRAS mutated, incubation 2 days
Protocol: as §1, §2

4T1 cells [5] = experiment: Colony forming (clonogenic) assay; format: cell-based, Mouse; conditions: 6 days of treatment, Figure 2
Protocol: Cancer stem cells are characterized by their ability to undergo virtually unlimited divisions. Colony forming assay (or clonogenic assay) is an in vitro assay designed to assess capability of single cells to grow into large colonies through clonal expansion.
4T1 cells were seeded at a density of 500 cells per well of six-well plates in 4T1 medium. Compounds to be tested were added 24 hours after seeding. After 6 days of treatment, the cells were fixed in 4% PFA and stained with 1% aqueous solution of crystal violet. Pictures of the entire wells were acquired, and the area of the positives colonies was evaluated by ImageJ software (Wayne Rasband; NIH).

MDA-MB-231 cells [6] = experiment: Scratch (wound healing) assay, cell migration; format: cell-based, Human; conditions: 24 hours, Figure 1
Protocol: Cell migration is involved in several pathological cancer processes such as tumor invasion, neoangiogenesis and metastasis. Scratch (or wound healing) assay is a method to study two-dimensional cell migration in vitro. It is based on the observation that cells growing in a monolayer migrate to reestablish cell contacts after a mechanical scratch wound.
The MDA-MB-231 cells were seeded into a 24-well plate and grown to confluent density. A scrape was made in each well using a pipette tip. Then, the cells monolayers were incubated for 2 hours with 5 µg/ml mitomycin C to stop cell proliferation. The cells were treated with the compounds to be tested for 24 hours. The cells were stained using CellMask Green actin tracking stain (cat.no. A57246 from Fisher Scientific) at time zero and at endpoint. Pictures were acquired using a fluorescence microscope (IXM from Molecular Device). The scratch area was measured with the ImageJ software. The recovery of the scratch area was calculated as a percentage of the scratch area at time zero.

RD cells [7] = experiment: Differentiation of RD cells into myotubes (alpha-actinin staining); format: cell-based, Human; conditions: 7 days, Figure 3
Protocol: RD cells are cancer cells of muscle origin that arose from myogenic precursors that fail to complete muscle differentiation. One strategy to stop their progression is to differentiate them into myotubes.
To allow differentiation, RD cells were seeded at a density of 3500 cells/well in a 384-well plate coated with collagen type I, in DMEM (4,5g/L glucose) with L-Gln (cat.no. 41965-039 from Gibco) supplemented with 5% of knockout serum replacement (cat.no. 10828-028 from Gibco), 1% PenStrep (Gibco), 1% MEM NEAA (Gibco) and 0.1 mM 2-mercaptoethanol (Gibco) (hereafter "K5 medium"). Compounds to be tested were then added onto the cells and incubated for 7 days at 37°C. On day 7, cells were fixed with 4% paraformaldehyde solution and immunostained for α-actinin (cat.no. EA-53 from Sigma, at 1/30000).

Src kinase family = experiment: Human phospho-kinase array in RD cells; format: cell-based; conditions: 1 hour at its IC50, Figure 4
Protocol: Inhibition of kinases can be observed by quantifying both their phosphorylation levels and the phosphorylation level of downstream proteins in their pathways.
RD cells were cultured in vitro and expanded for 4 days prior to the experiments (see example 3.1 and table 6a for details). The assay was performed using the human phospho-kinase array kit (cat.no. ARY003C from R&D Systems), according to the manufacturer's instructions. The RD cells were treated with compound #032 for 1 hour at its IC50 (previously defined) and lysed with lysis buffer supplemented with aprotinin, leupeptin and pepstatin. The total protein extract was titrated using a micro-BCA kit (cat. no. 23235 from Thermofisher Scientific). The array membranes were blocked and incubated overnight at 4 °C with 500 µg of total protein. Then, the detection antibodies were added for 2 hours followed by the HRP-conjugated Streptavidin solution for 30 minutes. The chemiluminescent signal was finally developed by incubating the membranes with the chemi-reagent mix and placed in the Fusion-FX acquisition system (Vilber Instruments). Data were analyzed using ImageJ software (Wayne Rasband; NIH).

Compound	IC50 (EoL-1 cells) [µM]	Cytotoxicity (EoL-1 cells)	IC50 (MDA-MB-231 cells [1]) [µM]	Cytotoxicity (MDA-MB-231 cells [1])	IC50 (4T1 cells [2]) [µM]	Cytotoxicity (4T1 cells [2])	Cytotoxicity (RD cells [3]; 2 day-treatment)	Cytotoxicity (RD cells [3]; 4 day-treatment)	IC50 (RD cells [3]; 48 h, 2 day-treatment) [µM]	IC50 (RD cells [3]; 96 h, 4 day-treatment) [µM]	Epithelial markers E-cadherin (4T1 cells [4])	Epithelial markers EpCAM (4T1 cells [4])	Mesenchymal markers Fibronectin (4T1 cells [4])	Mesenchymal markers Vimentin (4T1 cells [4])	IC50 (HUVECs) [µM]	Angiogenesis inhibition (HUVECs)	colony growth (4T1 cells [5])	migration in the scratch assay (MDA-MB-231 cells [6])	differentiation into myotubes (RD cells [7])	further results
CSc1cc(Oc2ccnc3c2OCC(=O)N3)ccc1NC(=O)Nc1cc(C(C)(C)C)no1 [Compound 020, 1-(3-tert-butylisoxazol-5-yl)-3-[2-methylsulfanyl-4-[(3-oxo-4H-pyrido[3,2-b][1,4]oxazin-8-yl)oxy]phenyl]urea]	< 0.001	+++ (cytotoxicity ≥ 85%)	< 1	++ (50% ≤ cytotoxicity < 85%)	1 to 5	+++ (cytotoxicity ≥ 85%)	++ (50% ≤ cytotoxicity < 85%)	++ (50% ≤ cytotoxicity < 85%)	1 to 5	< 1	↗	=	↘	↘	< 0.1	+++ (angiogenesis inhibition ≥ 80%)	–	–	–	IC50 (PSN1; Homo sapiens, 48 h): < 1 µM; Cytotoxicity (PSN1): +++ (cytotoxicity ≥ 85%); IC50 (SW480; Homo sapiens, 48 h): < 1 µM; Cytotoxicity (SW480): ++ (50% ≤ cytotoxicity < 85%); IC50 (HEC-1A; Homo sapiens, 48 h): < 1 µM; Cytotoxicity (HEC-1A): ++ (50% ≤ cytotoxicity < 85%); IC50 (HCT116; Homo sapiens, HCT-116, 48 h): < 1 µM; Cytotoxicity (HCT116): +++ (cytotoxicity ≥ 85%); IC50 (Mia PaCa-2; Homo sapiens, 48 h): < 1 µM; Cytotoxicity (Mia PaCa-2): +++ (cytotoxicity ≥ 85%); IC50 (A549; Homo sapiens, 48 h): < 1 µM; Cytotoxicity (A549): ++ (50% ≤ cytotoxicity < 85%); IC50 (RPMI 8226; Homo sapiens, 48 h): < 1 µM; Cytotoxicity (RPMI 8226): ++ (50% ≤ cytotoxicity < 85%)
CSc1cc(Oc2ccnc3c2OCC(=O)N3)ccc1NC(=O)Nc1cc(C(C)(C)C)nn1-c1ccccc1 [Compound 006, 1-(3-(tert-butyl)-1-phenyl-1H-pyrazol-5-yl)-3-(2-(methylthio)-4-((3-oxo-3,4-dihydro-2H-pyrido[3,2-b][1,4]oxazin-8-yl)oxy)phenyl)urea]	0.01 to 0.1	+++ (cytotoxicity ≥ 85%)	1 to 5	++ (50% ≤ cytotoxicity < 85%)	1 to 5	+++ (cytotoxicity ≥ 85%)	++ (50% ≤ cytotoxicity < 85%)	++ (50% ≤ cytotoxicity < 85%)	1 to 5	1 to 5	↗	↗	↘	↘	0.1 to 0.5	+++ (angiogenesis inhibition ≥ 80%)	inhibition of colony growth	inhibition of their migration	dose-dependent differentiation into myotubes	–
CSc1cc(Oc2ccnc3c2CCC(=O)N3)ccc1NC(=O)Nc1cc(C(C)(C)C)nn1-c1ccc(C)nc1 [Compound 032, 1-[5-tert-butyl-2-(6-methyl-3-pyridyl)pyrazol-3-yl]-3-[2-methylsulfanyl-4-[(7-oxo-6,8-dihydro-5H-1,8-naphthyridin-4-yl)oxy]phenyl]urea]	0.001 to 0.01	+++ (cytotoxicity ≥ 85%)	< 1	++ (50% ≤ cytotoxicity < 85%)	< 1	+++ (cytotoxicity ≥ 85%)	++ (50% ≤ cytotoxicity < 85%)	+++ (cytotoxicity ≥ 85%)	1 to 5	1 to 5	↗	↗	=	↘	< 0.1	+++ (angiogenesis inhibition ≥ 80%)	inhibition of colony growth	inhibition of their migration	dose-dependent differentiation into myotubes	phosphorylation of members of the Src kinase family and their downstream proteins (Src kinase family): decreased phosphorylation
